Here are results for two compounds from patent publication US8993633B2, “Treatment of muscle disease characterized by insulin resistance” (Fate Therapeutics, (Canada) Inc., priority 2009, dated 2015).

The test system of one data set is AMPK. Briefly: AMPK kinase activity in skeletal muscle of treated mdx mice. In kind it is in vivo, mouse. The conditions noted are these: metformin 100 mg/kg/day by osmotic pump, 28 days. The method, then: (§1) Studies were conducted in which metformin was administered to 4-week old mdx mice followed by extensive biochemical and morphologic analysis. The 4-week age group coincides with the early muscle degeneration/regeneration cycle and as such tests the ability of metformin to limit the degeneration process that begins at 3-4 weeks of age in this murine model of DMD. Metformin delivery was accomplished with the use of osmotic pump technology (Alzet). Alzet osmotic pumps are produced in a variety of formats ideal for use in murine models. The pumps were preloaded with metformin and then surgically implanted in a subcutaneous position suitable for long-term delivery, i.e. mid-scapular region. The Alzet osmotic pump was loaded with a metformin concentration selected to deliver 100 mg/kg/body wt per day, per standard diabetic treatment regimes, at 28 days of continuous infusion (Misra 2008). A skilled person will appreciate that metformin could be given orally or by other routes of administration to humans but the osmotic pump is a convenient way to regulate administration over the 28 days of the murine model. Control animals were implanted with osmotic pumps containing saline. Given that metformin is an anti-hyperglycemic agent, blood glucose levels were measured. […]

Another data set relates to AKT. The data set is described as follows: AKT kinase activity in skeletal muscle of treated mdx mice. Type of data set: in vivo, mouse. The conditions noted are these: for increase in AKT kinase activity compared to mdx-S control: metformin 100 mg/kg/day by osmotic pump. The method, then: (§2) Studies were conducted in which metformin was administered to 4-week old mdx mice followed by extensive biochemical and morphologic analysis. The 4-week age group coincides with the early muscle degeneration/regeneration cycle and as such tests the ability of metformin to limit the degeneration process that begins at 3-4 weeks of age in this murine model of DMD. Metformin delivery was accomplished with the use of osmotic pump technology (Alzet). Alzet osmotic pumps are produced in a variety of formats ideal for use in murine models. The pumps were preloaded with metformin and then surgically implanted in a subcutaneous position suitable for long-term delivery, i.e. mid-scapular region. The Alzet osmotic pump was loaded with a metformin concentration selected to deliver 100 mg/kg/body wt per day, per standard diabetic treatment regimes, at 28 days of continuous infusion (Misra 2008). A skilled person will appreciate that metformin could be given orally or by other routes of administration to humans but the osmotic pump is a convenient way to regulate administration over the 28 days of the murine model. Control animals were implanted with osmotic pumps containing saline. Given that metformin is an anti-hyperglycemic agent, blood glucose levels were measured.
(§3) Wild-type (C57BL-10) and mdx mice (C57BL/10ScSn-DMD/^mdx) were purchased from Jackson Laboratories (Bar Harbour, Me.) and housed in the University of Ottawa Animal Care Facility. Mice aged 3-4 weeks (peak necrotic stage) were surgically implanted with an (Alzet) osmotic mini-pump containing metformin or insulin for 14 and 28 days. Animals were randomly assigned to experimental or control treatment groups. Depending on the experiment, Mdx mice either received 100 mg/kg/d of metformin (Aldrich) (mdx-M) or 0.75 U of insulin (Sigma) (mdx-I). […]
(§4) Muscle samples were homogenized and quantified for protein concentration using Brafford Assay. […] Incorporation of radioactivity was counted using liquid scintillation counter. […]

For a further data set, the system named is GSK-3β. The data set is described as follows: GSK-3β kinase activity in skeletal muscle of treated mdx mice. The conditions noted are these: for reduction of GSK-3β activity compared to mdx-S control: metformin 100 mg/kg/day by osmotic pump. In kind it is in vivo, mouse. The method, then:
as §2, §3, §4

In a further data set the test system is GLUT4. Briefly: GLUT4 localization by immunohistochemistry in mdx skeletal muscle. In kind it is in vivo, mouse. The method, then: as §1, with “A skilled person will appreciate that metformin could be given orally or by other routes of administration to humans but the osmotic pump is a convenient way to regulate administration over the 28 days of the murine model. Control animals were implanted with osmotic pumps containing saline.” left out
Paraffin embedded muscles were section transversely (10 µm) and deparaffinized in descending alcohols, blocked with 3% BSA and permeabilized in 0.1% triton in PBS for 1 h at RT. […] Sections were then washed and mounted using fluorescence mounting medium (DAKO).

In data set [1] the test system is mdx mice. Briefly: Glycogen deposition by periodic acid Schiff staining in mdx skeletal muscle. Type of data set: in vivo, mouse. Conditions: TA muscle of mdx mice, metformin treatment, PAS staining. The method, then: as §1
Data set [2] relates to mdx mice. Briefly: H&E myofiber pathology and morphometry in mdx skeletal muscle. In kind it is in vivo, mouse. Conditions: for proportion of smaller myofibers (CSA<1500 μm^2): mdx-M. The method, then: as §2
(§5) Wild-type (C57BL-10) and mdx mice (C57BL/10ScSn-DMD/^mdx) were purchased from Jackson Laboratories (Bar Harbour, Me.) and housed in the University of Ottawa Animal Care Facility. Mice aged 3-4 weeks (peak necrotic stage) were surgically implanted with an (Alzet) osmotic mini-pump containing metformin or insulin for 14 and 28 days. Animals were randomly assigned to experimental or control treatment groups. Depending on the experiment, Mdx mice either received 100 mg/kg/d of metformin (Aldrich) (mdx-M) or 0.75 U of insulin (Sigma) (mdx-I). Drug concentrations were based on the effective dose range used in diabetic mouse models (Bailey and Puah, 1986; Cohen et al., 2004)
(§6) Control groups were surgically implanted with the mini-pump containing saline (wild type [WT-S], mdx-S). Following completion of drug treatment, animals were sacrificed by cervical dislocation and skeletal muscles (tibialis anterior TA, diaphragm DIA, gastrocnemius Gastro, and Soleus) were harvested. For analysis of biochemistry, skeletal muscles were snap frozen in liquid nitrogen. For preparation of paraffin sections skeletal muscles were fixed in formalin.
Muscle sections were rehydrated in xylene followed by descending alcohols (100%, 95%, 80%), incubated in Shandon Instant Hematoxylin (Fisher Scientific) for 3 mins, washed 1 min, incubated in Eosin (Fisher Scientific) for 3 mins and then dehydrated in ascending alcohols followed by incubation in xylene. Stained sections were mounted with permount (Fisher Scientific). Quantification of morphometric parameters was performed on ˜1000 fibers per muscle.

A further data set concerns DGC. The data set is described as follows: DGC component and utrophin protein levels and sarcolemmal distribution in mdx muscle. In kind it is in vivo, mouse. The procedure: as §2, §5, §6
Paraffin embedded muscles were section transversely (10 µm) and deparaffinized in descending alcohols, blocked with 3% BSA and permeabilized in 0.1% triton in PBS for 1 h at RT. Sections were then incubated in primary antibodies against GLUT4 (Chemicon), Laminin (Sigma), Utrophin, 13-Dystroglycan and γ-Sarcoglycan were purchased from Vector Laboratories. In order to amplify primary antibody signal the avidin/biotin complex technique was performed on muscle sections. As well primary mouse antibodies were diluted in M.O.M diluent (M.O.M. Basic Kit, Vector Laboratories). In brief, sections were incubated with primary antibody overnight at 4° C. then incubated in biotinylated secondary antibody for 30 mins at RT, followed by incubation in FITC-streptoavidin conjugated secondary antibody (Molecular Probes) for 1 h at RT. Sections were then washed and mounted using fluorescence mounting medium (DAKO).
Muscle samples were homogenized, lyzed and quantified for protein concentration using Brafford Assay. Equal concentrations of protein samples were resolved by 6-8% SDS-PAGE and transferred to nitrocellulose membranes. Primary antibodies against IRS, IRS^y941, IRS^S307, anti-MHC (clone MF20) were used at a dilution of 1:500. Rabbit polyclonal antibodies were detected using horseradish peroxidase-conjugated anti-rabbit at dilution of 1:5000. Immunoblots were developed using with Supersignal West Pico Chemiluminescence substrate.

Data set [3] concerns mdx mice. The data set is described as follows: Evans blue dye uptake (sarcolemmal integrity) in mdx muscle. The conditions noted are these: metformin-treated mdx, 28 days; untreated (MS) 42%. Type of data set: in vivo, mouse. The method, then: as §5
To measure sarcolemmal integrity, treated and untreated mdx mice were injected intravenously through the dorsal tail vein with 50 ul/10 g of 1% Evans Blue Dye (EBD, Sigma) in sterilized phosphate-buffered saline (PBS 7.4). Skeletal muscle was harvested 6-8 hrs post-injection and prepared for immunofluorescence as previously described. To visualize sarcolemmal membrane, EBD infiltrated fibers sections were incubated in anti-laminin (Sigma) at 4° C. overnight and then mounted in fluorescent mounting medium (DAKO).

Data set [4] has as its system mdx mice. The data set is described as follows: Rotorod test of motor performance in mdx mice. Type of data set: in vivo, mouse. The conditions noted are these: mdx mice treated 28 days, by the 4th trial; 15 rpm start, 0.1 rpm/s acceleration. The method, then:
Metformin treated mdx-mice display improved motor performance compared to saline-treated mdx-mice. Mice (mdx) 3-4 weeks of age were treated with metformin or saline for 28 days according to the protocol described above. At the end of the treatment phase, a rotorod test was performed, which was repeated daily for 3 consecutive days. The mice were 7-8 weeks of age when tested, thus young adults. The initial rotorod speed for each trial was 15 rpm with gradual acceleration at a rate of 0.1 rpm per second. Mean fall latency time refers to the average amount of time the mice could run on the rotating rod (seconds). As soon as the animals fell from the rod, the time was stopped. The average value shown represents the average of each trial (1-4) performed for 3 consecutive days. The rotorod test is a behavioural test of motor coordination or performance and fatigue resistance or exercise tolerance, where the earlier time points are essentially an adaptation to the rotorod.

Data set [5] deals with mdx mice. The data set is described as follows: Monitoring of blood glucose and adverse health effects during drug treatment of mdx mice. Type of data set: in vivo, mouse. Conditions: metformin 100 mg/kg/day, throughout drug treatment. The method, then:
as §2

For data set [6] the following is noted: cited from earlier work.
Where [7] appears, read: immunoblot, compared to mdx-Saline control.
Where [8] appears, read: immunohistochemistry, mdx myofibers.
[9] abbreviates: 28-day insulin delivery (0.75 U).

Take `CN(C)C(=N)NC(=N)N` [Metformin, N,N-dimethylimidodicarbonimidicdiamide]: the “elevation in AMPK kinase activity over baseline levels in mdx-S control” value in the data set on AMPK (DIA muscle) is recorded as 55%. For the same compound, the “elevation in AMPK kinase activity over baseline levels in mdx-S control” value in the data set with AMPK (TA muscle) amounted to 75%. For the same compound, in the data set on AKT (DIA muscle), the “increase in AKT kinase activity compared to mdx-S control” value is on record as around 80%. Further, in the data set with AKT (TA muscle), the “increase in AKT kinase activity compared to mdx-S control” value was determined as 83%. In addition, the “reduction of GSK-3β activity compared to mdx-S control” value in the data set on GSK-3β (DIA muscle) was 66%. Further, the “reduction of GSK-3β activity compared to mdx-S control” value in the data set on GSK-3β (TA muscle) is 31%. Moreover, in the data set on GLUT4 (TA muscle of mdx mice, metformin treatment), the GLUT4 localization entry is given as “restoration of GLUT4 protein to that observed in wild-type skeletal muscle”. For the same compound, the “skeletal muscle glycogen content” value in the data set with mdx mice [1] is reported as “complete normalization of glycogen content”. Besides, the “proportion of smaller myofibers (CSA<1500 μm^2)” value in the data set with mdx mice [2] (DIA, untreated 38%) amounted to 23%. In the data set on mdx mice [2] (TA, DIA, gastrocnemius and soleus of mdx mice, 28-day metformin vs saline), the focal necrosis result was “significant decline in the focal necrosis”. The “proportion of smaller myofibers (CSA<1500 μm^2)” value with mdx mice [2] (TA, untreated 22%) was found to be 14%. The “fibers displaying central nuclei” value in the data set on mdx mice [2] (mdx-M fibers after 28 days metformin, untreated mdx-S 55%) is around 38%. The utrophin protein levels entry in the data set with DGC (gastrocnemius, compared to mdx-Saline control) is given as “increased”. In the data set with DGC (setting [7]), the β-dystroglycan protein expression result is “increased” and the γ-sarcoglycan protein expression result is given as “increased”. For the same compound, in the data set on DGC (setting [8]), the “sarcolemmal distribution of β-dystroglycan” value is reported as “notable increase”, the “sarcolemmal distribution of γ-sarcoglycan” value is “notable increase” and the “utrophin along the extrasynaptic sarcolemma” value was “robust increase”. Further, in the data set with mdx mice [3], the “myofibers positively stained for EBD” value is recorded as 22%. Further, in the data set on mdx mice [4], the “rotorod running time (fall latency)” value is “significant improvement in running time”. In addition, in the data set with mdx mice [5], the “hypoglycemia or adverse health effects” value is “no evidence of hypoglycemia or adverse health effects”. In data set [6] (patients), the “incidence of lactic acidosis” value is reported as “about 0.03 cases per 1000 patients years of treatment” and the “mortality risk of lactic acidosis” value was “about 0.015 per 1000 patient-years”. The “gastrointestinal adverse effects, notably diarrhea” value in data set [6] (remit when the dosage is reduced) is on record as “less than 20 % of patients”.

For “insulin: insulin (Sigma), 0.75 U delivered by osmotic mini-pump to mdx mice (mdx-I)”, the AKT kinase activity entry with AKT (setting [9]) is on record as “no significant change”. The GSK3β kinase activity entry with GSK-3β (setting [9]) is listed as “only marginal changes”. Moreover, the GLUT4 localization result with GLUT4 (mdx mice following insulin treatment) is on record as “remained localized in a perinuclear domain”. In addition, in the data set with mdx mice [2] (TA and DIA fibers of mdx-I), the “fiber size variability and protection against degeneration (H&E)” value was “no reduction in fiber size variability and protection against degeneration”. For the same compound, the “number of centrally located nuclei” value in the data set with mdx mice [2] (mdx-I vs mdx-S) is “remained comparable”. In addition, the “fiber size distribution (morphometric analysis)” value in the data set with mdx mice [2] (mdx-I, in particular the DIA) was “no overall change”.
